Data from patent US20240336897A1, “COMPOSITIONS AND METHODS FOR CELL REPROGRAMMING” (CORNELL UNIVERSITY, priority 2021, published 2024).

Key:
biPSCs [1] = experiment: Base medium lacking individual inhibitors for GSK3β, MEK1/2 or TGFβ/activin/nodal; settings: GMTi base medium lacking this inhibitor
Experimental: (§1) The biPSC colonies emerging from reprogramming trials were manually picked, dissociated into single cells using TrypLE™ (ThermoFisher) and plated on iMEFs in GMTi medium. For passaging, confluent cultures of biPSCs were rinsed once with PBS and incubated with TrypLE for 5 minutes. Cells were then collected in fibroblast medium, and centrifuged at 200×rcf for 5 minutes. The pellet was then resuspended in GMTi medium for plating on iMEFs. Passaging of biPSCs was performed repeatedly (every 3-4 days), with concurrent examination and imaging of morphology, growth characteristics and expression of PSC markers. […] Base medium conditions lacking individual inhibitors for GSK3β, MEK1/2 or TGFβ/activin/nodal were also prepared and tested for their ability to sustain pluripotent cultures. All cultures were maintained in a humidified incubator at 37° C. under an atmosphere of 5% CO2.

biPSCs [2] = settings: MEK1/2 and GSK3B inhibitors used together; cited from earlier work
biPSCs [3] = experiment: Sustenance of biPSCs using specific pathway inhibition (GMTi medium): repeated passaging, morphology; settings: at least over a few passages, cell morphology
Experimental: as §1

Molecule	effect of removing the single inhibitor from biPSC cultures (biPSCs [1])	effect on biPSCs (biPSCs [2])	effect of excluding the factor from the GMTi medium on biPSCs (biPSCs [3])
Cc1cccc(-c2nn(C(=S)Nc3ccccc3)cc2-c2ccnc3ccccc23)n1 [A83-01]	resulted in differentiation		
Cc1c[nH]c(-c2cnc(NCCNc3ccc(C#N)cn3)nc2-c2ccc(Cl)cc2Cl)n1 [CHIR99021]	resulted in differentiation	suspend biPSCs in a pluripotent state, but without the ability to proliferate	
O=C(NOC[C@H](O)CO)c1ccc(F)c(F)c1Nc1ccc(I)cc1F [PD0325901]		suspend biPSCs in a pluripotent state, but without the ability to proliferate	
IL6: interleukin 6, leukemia inhibitory factor family member			did not negatively affect biPSCs
LIF: human leukemia inhibitory factor			did not negatively affect biPSCs
